Here are results for 11 compounds from ChEMBL document CHEMBL1649337, “Triterpenoidal alkaloids from Buxus natalensis and their acetylcholinesterase inhibitory activity” (J Nat Prod, 2010).

For this test, the target named is Acetylcholinesterase (Homo sapiens, UniProt P22303). The experiment in a line: Inhibition of AChE by Ellman's method. (In general: Ellman's reagent forms a yellow product with free thiols.)
Acetylcholinesterase, sequence (P22303 whole entry): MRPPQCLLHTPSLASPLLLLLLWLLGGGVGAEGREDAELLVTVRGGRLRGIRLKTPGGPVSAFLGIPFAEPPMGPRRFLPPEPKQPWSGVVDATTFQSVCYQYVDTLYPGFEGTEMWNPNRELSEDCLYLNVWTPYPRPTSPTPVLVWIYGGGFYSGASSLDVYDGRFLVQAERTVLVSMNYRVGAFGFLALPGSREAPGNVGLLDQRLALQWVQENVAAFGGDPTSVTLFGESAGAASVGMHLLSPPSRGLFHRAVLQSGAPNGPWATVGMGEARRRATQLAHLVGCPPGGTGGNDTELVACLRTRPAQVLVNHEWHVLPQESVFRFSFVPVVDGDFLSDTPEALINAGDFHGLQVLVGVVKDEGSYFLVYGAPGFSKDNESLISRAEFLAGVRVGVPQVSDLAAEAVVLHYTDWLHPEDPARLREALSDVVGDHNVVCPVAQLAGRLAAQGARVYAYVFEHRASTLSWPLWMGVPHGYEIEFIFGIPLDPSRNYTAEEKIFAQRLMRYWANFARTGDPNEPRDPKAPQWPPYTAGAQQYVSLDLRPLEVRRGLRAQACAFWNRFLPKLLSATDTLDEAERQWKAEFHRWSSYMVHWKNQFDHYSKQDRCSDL

As a reminder, the IC50 is the midpoint of a concentration-inhibition curve. Consider `C[C@@H]([C@H]1[C@H](O)C[C@@]2(C)[C@@H]3C[C@H](O)[C@H]4[C@]5(C)CO[C@]4(C=C[C@@H]5NC(=O)c4ccccc4)CC3=CC[C@]12C)N(C)C`, for which, for the setting “read-out: IC50”, the half-inhibitory concentration (IC50) amounted to 8.5 µM.

Turning to `CC(=O)O[C@H]1C[C@@H]2C(=CC[C@]3(C)[C@@H]([C@H](C)N(C)C)[C@H](O)C[C@@]23C)C[C@@]23O[C@@H]2[C@H]2OC[C@](C)([C@H]2NC(=O)c2ccccc2)[C@H]13`, the IC50 (read-out: IC50) was 3 µM.

For the compound `CC(=O)O[C@@H]1C[C@@]2(C)[C@@H]3C[C@H]4OC[C@@]5(C)[C@@H](NC(=O)c6ccccc6)C=C[C@@](O)(CC3=CC[C@]2(C)[C@H]1[C@H](C)N(C)C)[C@@H]45` [BUXAFURANAMIDE], the concentration for half-maximal inhibition (IC50) (read-out: IC50) worked out at 14 µM.

With `C[C@@H]([C@H]1CC[C@@]2(C)[C@@H]3CC[C@@H]4C(=CC3=CC[C@]12C)CC[C@H](N(C)C)C4(C)C)N(C)C` [BUXAMINE A], for the setting “read-out: IC50”, the IC50 worked out at 80 µM.

Turning to `C[C@@H]([C@H]1[C@H](O)C[C@@]2(C)[C@@H]3C=C[C@H]4C(C)(C)[C@@H](N(C)C)[C@H](O)C[C@@]45C[C@@]35CC[C@]12C)N(C)C` [CYCLONATAMINOL], the IC50 (read-out: IC50) amounted to 22.9 µM.

Consider `CN[C@H]1CCC2=CC3=CC[C@]4(C)[C@@H]([C@H](C)N(C)C)[C@H](O)C[C@@]4(C)[C@@H]3CC[C@H]2C1(C)C` [BUXAMINOL C], for which the IC50 (read-out: IC50) came out at 40 µM.

Take `CC(=O)O[C@@H]1C[C@@]2(C)[C@@H]3CC[C@H]4[C@](C)(CO)[C@@H](NC(=O)c5ccccc5)C=C[C@]4(O)CC3=CC[C@]2(C)[C@H]1[C@H](C)N(C)C` [BUXALONGIFOLAMIDINE]: the IC50 (read-out: IC50) stood at 30.2 µM.

For `C[C@@H]1[C@@H]2CC[C@@H]3C(=CC[C@]4(C)[C@@H]([C@H](C)N(C)C)[C@H](O)C[C@@]34C)C=C2CC[C@@H]1N(C)C` [31-DEMETHYLBUXAMINOL], the half-maximal inhibitory concentration (IC50) (read-out: IC50) was 25.8 µM.

With `C/C=C1/C(=O)C[C@@]2(C)[C@@H]3CC[C@H]4C(C)(C)[C@@H](N(C)C)CC[C@@]45C[C@@]35CC[C@]12C` [CYCLOBUXOPHYLLINE K], the IC50 (read-out: IC50) is 58.2 µM.

Consider `NCCCCNC(=O)/C=C/c1ccc(O)cc1` [P-COUMAROYLPUTRESCINE], for which the concentration for half-maximal inhibition (IC50) entry was “Not Active”.

As for `C[C@@H]([C@H]1[C@H](O)C[C@@]2(C)[C@@H]3CC[C@@H]4C(=CC3=CC[C@]12C)CC[C@H](N(C)C)C4(C)C)N(C)C` [BUXAMINOL A], the IC50 (read-out: IC50) was found to be 29.8 µM.
